Source: patent US4568685A, “N-[(1H-1,2,4-Triazol-1-yl)alkyl]-arylamides” (American Cyanamid Company, priority 1984, dated 1986)
Structures can show the parent of a compound that is named as a salt.

test system: spontaneously hypertensive rats; test: Hypotensive activity in spontaneously hypertensive rats (mean arterial blood pressure); format: in vivo, spontaneously hypertensive rats of the Okamoto strain; settings: gavage, about 100 mg/kg or less, two doses 24 hours apart, measured at about 28 hours; average MABP of the SHR 170 ±1.5 mm Hg; number of rats in parentheses
Method: Hypotensive Activity in Spontaneously Hypertensive Rats
The novel compounds of the present invention are active hypotensive agents and were tested for hypotensive activity by the method of P. S. Chan and D. Poorvin, Clinical and Experimental Hypertension, 1 (6), 817-830 (1979). Male, 16 week old, spontaneously hypertensive rats of the Okamoto strain, from Taconic Farms, Germantown, N.Y., having an average mean arterial blood pressure of 170 ±1.5 mm of mercury are used in the test. One to 3 rats are used per test compound. A rat is dosed by gavage with a test compound, suspended in approximately 2% pre-boiled starch at a concentration of about 50 mg/ml, at a dose of about 100 mg/kg of body weight or less, with approximately 0.9% sodium chloride loading at a dose of about 25 ml/kg of body weight. A second identical dose of the test compound, without sodium chloride loading, is given about 24 hours later. At about 28 hours after the initial dose the mean arterial blood pressure is measured by the method of Chan and Poorvin vide supra. The procedure is repeated in a second and third rat when necessary.

First: O=C1c2ccccc2C(=O)N1CCCCn1cncn1 [2-[4-(1H-1,2,4-triazol-1-yl)butyl]-1H-isoindol-1,3(2H)-dione]
Second: O=C(NCCCCn1cncn1)c1ccccc1-c1ccccc1 [Example 6, N--[4-(1H--1,2,4-triazol-1-yl)butyl] [1,1'-biphenyl]-2-carboxamide, fumarate]
The “MABP (mean arterial blood pressure)” value of the first is lower: 119 mm Hg for the first, 145 mm Hg for the second.

Going from `O=C(NCCCCn1cncn1)c1ccc(Cl)c(Cl)c1` [Example 5, 3,4-Dichloro-N-[4-(1H-1,2,4-triazol-1-yl)butyl]benzamide] to `O=C(NCCCn1cncn1)c1ccc(Cl)c(Cl)c1` [Example 12, 3,4-Dichloro-N-[3-(1H-1,2,4-triazol-1-yl)propyl]benzamide], the “MABP (mean arterial blood pressure)” value rises from 141 mm Hg to 150 mm Hg.

Going from `O=C(NCCCCn1cncn1)c1ccc(Br)cc1` [Example 8, 4-bromo-N--[4-(1H--1,2,4-triazol-1-yl)butyl]benzamide] to `O=C(NCCCn1cncn1)c1ccc(Br)cc1` [Example 23, 4-bromo-N--[3-(1H--1,2,4-triazol-1-yl)propyl]benzamide], the “MABP (mean arterial blood pressure)” value rises from 137 mm Hg to 147 mm Hg.

Compared with `CC(C)(C)c1ccc(C(=O)NCCCn2cncn2)cc1` [Example 13, 4-(1,1-dimethylethyl)-N--[3-(1H--1,2,4-triazol-1-yl)propyl]benzamide], `Cc1ccc(C(=O)NCCCn2cncn2)cc1` [Example 21, 4-methyl-N--[3-(1H--1,2,4-triazol-1-yl)propyl]benzamide] is higher in “MABP (mean arterial blood pressure)” value: 123 mm Hg for the first, 145 mm Hg for the second.

First: N#Cc1ccc(C(=O)NCCCn2cncn2)cc1 [Example 19, 4-cyano-N--[3-(1H--1,2,4-triazol-1-yl)propyl]benzamide]
Second: O=C(NCCCn1cncn1)c1ccc(I)cc1 [Example 27, 4-Iodo-N-[3-(1H-1,2,4-triazol-1-yl)propyl]benzamide]
The “MABP (mean arterial blood pressure)” value of the first is lower: 119 mm Hg for the first, 128 mm Hg for the second.

First: O=C(NCCCn1cncn1)c1ccccc1 [Example 24, N--[3-(1H--1,2,4-triazol-1-yl)propyl]benzamide]
Second: CN(C)c1ccc(C(=O)NCCCn2cncn2)cc1 [Example 37, 4-(dimethylamino)-N--[3-(1H--1,2,4-triazol-1-yl)propyl]benzamide]
The “MABP (mean arterial blood pressure)” value of the first is higher: 124 mm Hg for the first, 117 mm Hg for the second.

First: O=C(C=Cc1ccc(Cl)cc1)NCCCn1cncn1 [Example 29, 3-(4-chlorophenyl)-N--[3-(1H--1,2,4-triazol-1-yl)propyl]-2-propenamide]
Second: CS(=O)(=O)c1ccc(C(=O)NCCCn2cncn2)cc1 [Example 32, 4-(methylsulfonyl)-N--[3-(1H--1,2,4-triazol-1-yl)propyl]benzamide]
The “MABP (mean arterial blood pressure)” value of the first is higher: 137 mm Hg for the first, 110 mm Hg for the second.

`O=C(Cc1cccc2ccccc12)NCCCCn1cncn1` [N--[4-(1H--1,2,4-triazol-1-yl)butyl]-1-naphthalene acetamide, fumarate] was tested, and the “MABP (mean arterial blood pressure)” value was 134 mm Hg.
